Data taken from patent US8158088B2, “Extractant compositions for co-extracting cesium and strontium, a method of separating cesium and strontium from an aqueous feed, and calixarene compounds” (Battelle Energy Alliance, LLC, priority 2008, dated 2012).
Several values for one entry are separate records, joined by “and”; a condition that tells them apart may be missing. Equal values may be shown once.

Columns and labels:
Format in all cases: physicochemical
[1] = Third phase formation on contact with nitric acid
[2] = Solvent stability: strontium distribution ratios as a function of contact time with 1.5 M HNO3
Protocol: (§1) The stability of the mixed extractant solvents prepared using dialkyloxycalix[4]arenebenzocrown-6 compounds (MC-8, MC-8B, MC-10, MC-10B, MC-12, or MC-12B) relative to BOBCalixC6 in the FPEX I process solvent was determined. Samples were prepared using each of the dialkyloxycalix[4]arenebenzocrown-6 compounds and contacted with 1.5 M HNO3. The samples included 0.007 M of the respective dialkyloxycalix[4]arenebenzo-crown-6 compound (MC-8, MC-8B, MC-10, MC-10B, MC-12, or MC-12B), 0.075 M DtBuCH18C6, 0.75 M Cs-7SB modifier, and 0.003 M TOA in ISOPAR® L. The stability of the dialkyloxycalix[4]arene-benzocrown-6 based solvents was evaluated by measuring the cesium and strontium distribution ratios as a function of contact time. These cesium and strontium distribution ratios for the mixed extractant solvents are presented in Table 9 and Table 10, respectively, along with the cesium and strontium distribution ratios for the FPEX I process solvent. The symbol “-” is used in Tables 9 and 10 to indicate no data was collected.
(§2) This degradation is likely due to chemical attack or nitration of the BOBCalixC6 in the FPEX I process solvent. […] However, it is difficult to compare the relative extents of degradation. In order to compare the different extractants, the distribution ratio data presented in Tables 9 and 10 were normalized to the values obtained at t=0 days contact. The normalized cesium and strontium distribution ratios for the FPEX I process solvent and the mixed extractant solvents as a function of contact time are presented in FIGS. 2 and 3, respectively.

[3] = Solvent stability: cesium distribution ratios as a function of contact time with 1.5 M HNO3
Protocol: as §1, §2

[4] = Cesium distribution ratio (DCs), equilibrium batch contact of mixed extractant solvent with nitric acid feed; conditions: for DCs: 1.5 HNO3
From the text: The distribution of cesium and strontium between the first organic phase (the mixed extractant solvent including the dialkyloxycalix[4]arenebenzocrown-6 compound) and the first aqueous phase (aqueous feed) may be determined by conventional techniques. The distribution ratio for strontium (“DSr”) may be calculated as the ratio of organic phase activity to the aqueous phase activity at equilibrium. High values for the DSr indicate that the strontium is present predominantly in the organic phase while low values for the DSr indicate that the strontium is present predominantly in the aqueous phase. Similarly, the distribution ratio for cesium (“DCs”) may be calculated as the ratio of organic phase activity to the aqueous phase activity at equilibrium. High values for the DCs indicate that the cesium is present predominantly in the organic phase while low values for the DCs indicate that the cesium is present predominantly in the aqueous phase.
Distribution ratios (DM=[M]org/[M]aq) were measured by equilibrium batch contacts between the organic and aqueous phases at an organic-to-aqueous phase ratio (O/A) of unity (O/A=1). All distribution ratio measurements were conducted in a temperature controlled water bath at 25±1° C. The aqueous phase was of the appropriate HNO3 concentration, to which trace quantities (typically, less than 10^−7 M each) of the major radionuclides of interest (^137Cs, ^85Sr, ^154Eu, or ^241Am) were added. The organic and aqueous phases were contacted by vortex mixing for 1 minute. All batch contact experiments were performed at ambient temperature (from approximately 20° C. to approximately 25° C.) unless otherwise noted. Following extraction, the samples were centrifuged for 1 minute and the organic and aqueous phases separated by pipet or centrifugation. The distribution ratios (DSr, or DCs) were calculated as the ratio of the appropriate specific activities in the organic and aqueous phases as determined by γ-ray counting (gamma spectroscopy). The counting time was selected to provide less than approximately 1% statistical uncertainty.
(MC-8, MC-8B, MC-10, MC-10B, MC-12, or MC-12B), 0.075 M DtBuCH18C6, 0.75 M Cs-7SB modifier, and 0.003 M TOA in ISOPAR® L were evaluated for their respective abilities to simultaneously extract cesium and strontium from the aqueous feed simulant composition described in Table 2. The cesium and strontium distribution ratios of the mixed extraction solvents were compared to those of the FPEX I process solvent. The cesium extraction performance and strontium extraction performance of each of the mixed extractant solvents was determined using the batch contact flowsheet presented in FIG. 1, where “E1,” “E2,” and “E3” refer to three forward extraction acts: a first extraction act, a second extraction act, and a third extraction act, respectively, and “St1” and “St2” refer to two backward extraction acts: a first strip act and a second strip act, respectively. […] The aqueous feed 2 and the mixed extractant solvent 4 were combined in a vessel 6 to conduct the extraction. Two phases were formed during the extraction: the first organic phase and the first aqueous phase, with the cesium and strontium substantially distributed in the first organic phase.
The cesium and strontium distribution ratios for the mixed extractant solvents 4 were calculated for the first organic phase and are reported in Tables 3 and 4, respectively, as E1, along with the cesium and strontium distribution ratios for the FPEX I process solvent. The cesium and strontium were stripped from the first (and subsequent) organic phase to recover these radionuclides. For the strips or backward extractions, the first (and subsequent) organic phase was contacted with dilute acidic solution 8, which was 0.01 M HNO3. […]

[5] = Strontium distribution ratio (DSr), equilibrium batch contact of mixed extractant solvent with nitric acid feed; conditions: for DSr: 1.5 HNO3
[6] = contact time 0 days with 1.5 M HNO3, 0.007 M calixarene, 0.075 M DtBuCH18C6, 0.75 M Cs-7SB, 0.003 M TOA in ISOPAR L
[7] = contact time 34 days with 1.5 M HNO3
[8] = contact time 70 days with 1.5 M HNO3
[9] = contact time 278 days with 1.5 M HNO3
[10] = [DtBuCH18C6]/[MC-10B] 50/10 mM, 1.5 M Cs-5SB
[11] = [DtBuCH18C6]/[MC-10B] 60/10 mM, 1.5 M Cs-5SB
[12] = [DtBuCH18C6]/[MC-10B] 60/15 mM, 1.5 M Cs-5SB
[13] = [DtBuCH18C6]/[MC-10B] 90/20 mM, 1.5 M Cs-5SB in ISOPAR L, feed 0.004 M cesium nitrate, 0.002 M strontium nitrate
[14] = first forward extraction, 1.5 M HNO3 feed simulant, 25 °C, 0.007 M calixarene, 0.075 M DtBuCH18C6, 0.75 M Cs-7SB, 0.003 M TOA in ISOPAR L
[15] = first strip with 0.01 M HNO3, 35 °C, 0.007 M calixarene solvent
[16] = second forward extraction, 1.5 M HNO3 feed, 25 °C, 0.007 M calixarene solvent
[17] = second strip with 0.01 M HNO3, 35 °C, 0.007 M calixarene solvent
[18] = third forward extraction, 1.5 M HNO3 feed, 25 °C, 0.007 M calixarene solvent

CC(C)CCCC(C)CCOc1c2cccc1Cc1cccc3c1OCCOCCOc1ccccc1OCCOCCOc1c(cccc1Cc1cccc(c1OCCC(C)CCCC(C)C)C3)C2 (stereo not shown) [MC-10B, 1,3-alternate-25,27-di(3,7-dimethyloctyl-1-oxy)calix[4]arenebenzocrown-6]
third phase formation ([1]; up to 2 M HNO3, 0.007 M MC-10B, 0.075 M DtBuCH18C6, 0.75 M Cs-7SB in ISOPAR L): no formation of third phases was detected
third phase formation ([1]; varying MC-10B and DtBuCH18C6 concentrations, 1.5 M Cs-5SB in ISOPAR L, 1.5 HNO3): No third phase formation was observed
Strontium distribution ratio as a function of contact time [2, 6]: 9.6
Strontium distribution ratio as a function of contact time [2, 7]: 8.5
Strontium distribution ratio as a function of contact time [2, 8]: 9.5
Strontium distribution ratio as a function of contact time [2, 9]: 8.0
Cesium distribution ratio as a function of contact time [3, 6]: 3.7
Cesium distribution ratio as a function of contact time [3, 7]: 3.0
Cesium distribution ratio as a function of contact time [3, 8]: 3.4
Cesium distribution ratio as a function of contact time [3, 9]: 2.8
DCs [4, 10]: 2.87 and 2.88
DCs [4, 11]: 2.77 and 2.81
DCs [4, 12]: 4.48 and 4.37
DCs [4, 13]: 6.11 and 6.36
Cesium distribution ratio, contact E1 [4, 14]: 3.7
Cesium distribution ratio, contact St1 [4, 15]: 0.5
Cesium distribution ratio, contact E2 [4, 16]: 1.9
Cesium distribution ratio, contact St2 [4, 17]: 0.2
Cesium distribution ratio, contact E3 [4, 18]: 1.5
DSr [5, 10]: 4.03 and 4.11
DSr [5, 11]: 4.83 and 4.90
DSr [5, 12]: 4.73 and 4.69
DSr [5, 13]: 6.90 and 6.94
Strontium distribution ratio, contact E1 [5, 14]: 9.6
Strontium distribution ratio, contact St1 [5, 15]: 0.06
Strontium distribution ratio, contact E2 [5, 16]: 8.6
Strontium distribution ratio, contact St2 [5, 17]: 0.01
Strontium distribution ratio, contact E3 [5, 18]: 8.3
